From EP0215357B1, “Pharmaceutical preparation for the treatment of hypertension” (HOECHST AKTIENGESELLSCHAFT, priority 1985, dated 1987)

Tested on: spontan hypertensive Ratten (Wistar-Kyoto)
Experiment: Urine excretion over 5 hours in spontaneously hypertensive rats (metabolic cages)
Type: in vivo, Ratte
Conditions: mean ± spread
Description: 10 spontan hypertensive Ratten (Wistar-Kyoto) wurden instrumentiert und während der Versuche in Stoffwechselkäfigen gehalten. Ramipril (=A) (1 mg/kg) und Piretanid (=B) (1,2 und 16 mg/kg) werden in Tylose oral mit Magensonde verabreicht. Die Kontrollgruppe erhielt nur Tylose. Die ausgeschiedene Urinmenge nach 5 Stunden, die Natriumausscheidung nach 5 Stunden sowie der arterielle Mitteldruck wurden bestimmt. Tabelle 1

SMILES | Urinmenge (1 mg/kg oral in Tylose) [µ1/100g.5h] | Urinmenge (2 mg/kg oral in Tylose) [µ1/100g.5h] | Urinmenge (16 mg/kg oral in Tylose) [µ1/100g.5h]
NS(=O)(=O)c1cc(C(=O)O)cc(N2CCCC2)c1Oc1ccccc1 [B, Piretanid] | 900±180 | 1470±140 | 3520±405
CCOC(=O)[C@H](CCc1ccccc1)N[C@@H](C)C(=O)N1[C@H](C(=O)O)C[C@@H]2CCC[C@@H]21 [A, Ramipril] | 760±185 |  | 
